PMC9525273 (Nature Communications, 2022)
Several values for one entry are separate records, joined by “and”; a condition that tells them apart may be missing. Equal values may be shown once. Read-outs that look alike come from different tables or passages of the source.

Assays:
[1] = biological target: T1, TgATP4^WT (membranes from T. gondii tachyzoites) (Toxoplasma gondii, UniProt B9QMJ0); test: Membrane ATPase assay, ATP4-associated (Na+-dependent) ATPase activity; type: biochemical; set-up: IC50 for inhibition of ATP4-associated ATPase activity, MEAN: unit: nM
T1 sequence (B9QMJ0 1-1338): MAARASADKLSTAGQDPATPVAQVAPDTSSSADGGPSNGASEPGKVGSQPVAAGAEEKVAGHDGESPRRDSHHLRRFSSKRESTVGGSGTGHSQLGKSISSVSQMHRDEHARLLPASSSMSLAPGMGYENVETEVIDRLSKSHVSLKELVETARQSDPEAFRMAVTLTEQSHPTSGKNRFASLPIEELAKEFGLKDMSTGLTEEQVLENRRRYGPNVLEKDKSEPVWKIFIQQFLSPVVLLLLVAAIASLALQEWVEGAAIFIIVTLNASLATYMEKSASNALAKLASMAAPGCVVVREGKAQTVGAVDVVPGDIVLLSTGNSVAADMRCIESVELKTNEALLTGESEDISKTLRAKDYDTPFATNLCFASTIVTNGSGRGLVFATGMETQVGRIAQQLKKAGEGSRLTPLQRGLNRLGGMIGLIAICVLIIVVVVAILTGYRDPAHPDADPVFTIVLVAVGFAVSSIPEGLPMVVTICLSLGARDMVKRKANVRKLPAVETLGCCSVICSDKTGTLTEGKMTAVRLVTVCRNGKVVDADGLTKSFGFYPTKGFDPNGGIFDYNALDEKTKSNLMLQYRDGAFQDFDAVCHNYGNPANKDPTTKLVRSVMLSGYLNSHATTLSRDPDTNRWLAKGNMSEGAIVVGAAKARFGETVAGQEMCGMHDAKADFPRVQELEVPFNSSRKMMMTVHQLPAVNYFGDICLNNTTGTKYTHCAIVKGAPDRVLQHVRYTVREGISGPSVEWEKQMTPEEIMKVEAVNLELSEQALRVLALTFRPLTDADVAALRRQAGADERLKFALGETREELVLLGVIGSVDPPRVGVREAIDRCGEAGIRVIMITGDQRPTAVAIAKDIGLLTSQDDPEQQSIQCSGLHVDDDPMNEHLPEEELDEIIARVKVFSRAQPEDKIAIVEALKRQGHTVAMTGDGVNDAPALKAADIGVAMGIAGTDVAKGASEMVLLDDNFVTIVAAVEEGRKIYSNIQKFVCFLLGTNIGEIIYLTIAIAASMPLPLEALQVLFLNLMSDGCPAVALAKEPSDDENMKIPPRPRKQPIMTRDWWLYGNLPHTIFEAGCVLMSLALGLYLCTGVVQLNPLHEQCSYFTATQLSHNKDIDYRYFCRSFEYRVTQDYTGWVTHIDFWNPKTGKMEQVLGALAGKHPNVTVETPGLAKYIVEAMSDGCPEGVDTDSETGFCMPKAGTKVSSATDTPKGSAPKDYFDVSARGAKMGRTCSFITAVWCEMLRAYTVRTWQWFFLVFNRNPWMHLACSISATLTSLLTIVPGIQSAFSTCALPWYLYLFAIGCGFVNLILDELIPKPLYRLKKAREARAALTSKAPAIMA
Procedure: Membranes from isolated P. falciparum or extracellular T. gondii parasites were prepared by lysing parasites in ice-cold deionized water containing a 1:500 dilution of Protease Inhibitor Cocktail Set III (Merck Millipore), then washing the membrane preparation three times in ice-cold deionized water (with protease inhibitors present for the first two washes)[15]. Protein concentrations in the membrane preparations were measured using a Bradford assay. The PiColorLock Gold Phosphate Detection System (Innova Biosciences) was used to measure the production of Pi from hydrolysis of ATP[15]. Membrane preparations were diluted in either a high Na^+ solution (yielding final conditions in the reactions of 150 mM NaCl, 20 mM KCl, 2 mM MgCl2, 50 mM Tris, pH 7.2) or a Na^+-free solution (yielding final conditions of 150 mM choline chloride, 20 mM KCl, 2 mM MgCl2, 50 mM Tris, pH 7.2) to achieve a total protein concentration of 50 μg/mL. […] The reactions were performed at 37 °C, and were initiated by the addition of 1 mM ATP (Na2ATP۰3H2O; MP Biomedicals) and terminated 10 min later by adding 100 μL of reaction mixture (in duplicate) to 25 μL “Gold mix” in a 96-well plate. “Stabiliser” was added 3 min later, and the plates incubated at room temperature in the dark for 60 min before measuring absorbance at 635 nm. Background values (averaged from wells containing all components, but to which ATP was not added until after the membrane was exposed to Gold mix) were subtracted from the data. For each treatment, the ATPase activity associated with the (Na^+-dependent) PfATP4 and TgATP4 proteins was calculated by subtracting data obtained in the low Na^+ condition (containing only the 2 mM Na^+ introduced on addition of 1 mM Na2ATP) from that obtained in the high Na^+ condition.

[2] = biological target: T2, TgATP4^G419S-HA (membranes from T. gondii tachyzoites) (Toxoplasma gondii, UniProt B9QMJ0, G419S); test: as above; type: biochemical
T2 sequence (B9QMJ0 1-1338 G419S): T1 sequence (B9QMJ0 1-1338)

[3] = tested on: PfATP4-mutant P. falciparum lines and their parents; details: cited from earlier work

In the case of `N#Cc1cc(NC(=O)[C@H]2c3ccccc3C(=O)N(CC(F)(F)F)[C@@H]2c2cccnc2)ccc1F` [(+)-SJ733], the “IC50 for inhibition of ATP4-associated ATPase activity, MEAN” value ([1]; WT T. gondii membranes, MEAN, source data of Table 1 (nM there)) is reported as 17.77, the remaining activity at 0.000122 µM ([1]; WT T. gondii, [(+)-SJ733] 0.122 nM, MEAN, read-out: TgATP4-associated ATPase activity (% of control)) is reported as 105% and the “TgATP4-associated ATPase activity (% of control)” value ([1]; WT T. gondii, [(+)-SJ733] 0.122 nM, single experiments, 0.000122 µM) is reported as 99.5 % of control and 113.7 % of control. For the same compound, the remaining activity at 0.000122 µM ([1]; WT T. gondii, [(+)-SJ733] 0.122 nM, single experiments, read-out: TgATP4-associated ATPase activity (% of control)) was 102%, the remaining activity at 0.000244 µM ([1]; WT T. gondii, [(+)-SJ733] 0.244 nM, MEAN, read-out: TgATP4-associated ATPase activity (% of control)) was 104% and the “TgATP4-associated ATPase activity (% of control)” value ([1]; WT T. gondii, [(+)-SJ733] 0.244 nM, single experiments, 0.000244 µM) was 103.7 % of control and 108.4 % of control. For the same compound, the remaining activity at 0.000244 µM ([1]; WT T. gondii, [(+)-SJ733] 0.244 nM, single experiments, read-out: TgATP4-associated ATPase activity (% of control)) was 99.9%, the remaining activity at 0.0005 µM ([1]; WT T. gondii, [(+)-SJ733] 0.5 nM, MEAN, read-out: TgATP4-associated ATPase activity (% of control)) was 93.6% and the “TgATP4-associated ATPase activity (% of control)” value ([1]; WT T. gondii, [(+)-SJ733] 0.5 nM, single experiments, 0.0005 µM) was 96.1 % of control and 95.1 % of control. For the same compound, the remaining activity at 0.0005 µM ([1]; WT T. gondii, [(+)-SJ733] 0.5 nM, single experiments, read-out: TgATP4-associated ATPase activity (% of control)) was 89.6%, the remaining activity at 0.001 µM ([1]; WT T. gondii, [(+)-SJ733] 1.0 nM, MEAN, read-out: TgATP4-associated ATPase activity (% of control)) was 102% and the “TgATP4-associated ATPase activity (% of control)” value ([1]; WT T. gondii, [(+)-SJ733] 1.0 nM, single experiments, 0.001 µM) was 96.8 % of control and 112.7 % of control. The remaining activity at 0.001 µM ([1]; WT T. gondii, [(+)-SJ733] 1.0 nM, single experiments, read-out: TgATP4-associated ATPase activity (% of control)) was 94.9%, the remaining activity at 0.002 µM ([1]; WT T. gondii, [(+)-SJ733] 2.0 nM, MEAN, read-out: TgATP4-associated ATPase activity (% of control)) was 95.7% and the “TgATP4-associated ATPase activity (% of control)” value ([1]; WT T. gondii, [(+)-SJ733] 2.0 nM, single experiments, 0.002 µM) was 71.9 % of control and 96.8 % of control and 118.4 % of control. For the same compound, the remaining activity at 0.0039 µM ([1]; WT T. gondii, [(+)-SJ733] 3.9 nM, MEAN, read-out: TgATP4-associated ATPase activity (% of control)) was 90.6%, the “TgATP4-associated ATPase activity (% of control)” value ([1]; WT T. gondii, [(+)-SJ733] 3.9 nM, single experiments, 0.0039 µM) was 69.6 % of control and 88.2 % of control and 113.9 % of control and the remaining activity at 0.0078 µM ([1]; WT T. gondii, [(+)-SJ733] 7.8 nM, MEAN, read-out: TgATP4-associated ATPase activity (% of control)) was 78.4%. The “TgATP4-associated ATPase activity (% of control)” value ([1]; WT T. gondii, [(+)-SJ733] 7.8 nM, single experiments, 0.0078 µM) was 63.9 % of control and 63.6 % of control and 107.7 % of control, the remaining activity at 0.0156 µM ([1]; WT T. gondii, [(+)-SJ733] 15.6 nM, MEAN, read-out: TgATP4-associated ATPase activity (% of control)) was 52.5% and the remaining activity at 0.0313 µM ([1]; WT T. gondii, [(+)-SJ733] 31.3 nM, MEAN, read-out: TgATP4-associated ATPase activity (% of control)) was 42.7%. For the same compound, the remaining activity at 0.0625 µM ([1]; WT T. gondii, [(+)-SJ733] 62.5 nM, MEAN, read-out: TgATP4-associated ATPase activity (% of control)) was 31.7%, the remaining activity at 0.25 µM ([1]; WT T. gondii, [(+)-SJ733] 250 nM, MEAN, read-out: TgATP4-associated ATPase activity (% of control)) was 20.9% and the remaining activity at 0.5 µM ([1]; WT T. gondii, [(+)-SJ733] 500 nM, MEAN, read-out: TgATP4-associated ATPase activity (% of control)) was 14.7%. For the same compound, the “IC50 for ATP4-associated ATPase activity” value ([1]; membranes from WT T. gondii (TgATP4WT), mean ± SEM) was 17.8 ± 9.2 (3) nM, the “IC50 for inhibition of ATP4-associated ATPase activity, MEAN” value ([2]; TgATP4G419S-HA membranes, MEAN, source data of Table 1 (nM there)) was >4000 and the “IC50 for inhibition of ATP4-associated ATPase activity” value ([2]; TgATP4G419S-HA membranes, single experiments, source data of Table 1 (nM there)) was >4000. The “IC50 for ATP4-associated ATPase activity” value ([2]; membranes from TgATP4G419S-HA, mean ± SEM) was > 4000 (3) nM, the IC50 ([3]; genetically engineered parasites bearing L350H in PfATP4) was 3.5 µM and the IC50 ([3]; genetically engineered parasites bearing P412T in PfATP4) was 10 µM. The IC50 ([3]; parental wild-type parasites) was 0.075 µM.
